Measured values reported in patent US20260258051A1, “Camptothecin Compound, Preparation Method Therefor and Use Thereof” (SICHUAN KELUN-BIOTECH BIOPHARMACEUTICAL CO., LTD., priority 2022, published 2026).
Like-named read-outs stand apart in the source and are kept apart here.

Tests used:
MDA-MB-453 cells = assay: Inhibitory effect on MDA-MB-453 cell proliferation; assay type: cell-based; conditions: Homo sapiens; MDA-MB-453, 72 h incubation, Cell Counting-Lite 2.0
Method: (1) Cell plating: First, tumor cells MDA-MB-453 were cultured with corresponding culture medium, the cells were digested with trypsin and centrifuged, then the cells were resuspended and counted, and the cells were adjusted to an appropriate concentration for plating.
(§1) Co-incubation of the compounds of the present invention and tumor cells: 90 μL of cell suspension was added to 96-well plates respectively. After cell adherence, 10 μL of bioactive molecules (compounds of the present invention) diluted with culture medium were added into the wells of the above plates, and incubated for 72 h.
(§2) In vitro cell viability detection: After the incubation, 50 μL of Cell Counting-Lite™ 2.0 reagent (Vazyme) was added to each well, shaken and mixed well in the dark, and reacted for 10 minutes before testing. Microplate reader (manufacturer: BMG, Model: PHERA Star-FS) was used for reading. The culture wells without cells were used as the background RLU, and the culture wells with cells but no compound were used as the cell control RLU. Cell inhibition rate=1−(sample RLU−background RLU)/(cell control RLU−background RLU)×100%. The half-inhibition concentration (IC50) of compound was calculated by fitting the curve according to the four-parameter model.

NCI-N87 cells = assay: Inhibitory effect on NCI-N87 cell proliferation; assay type: cell-based; conditions: Homo sapiens, NCI-N87, 72 h, read-out: IC50 (nM), inhibitory activity on NCI-N87 cell proliferation
Method: (1) Cell plating: First, tumor cells NCI-N87 were cultured with corresponding culture medium, the cells were digested with trypsin and centrifuged, then the cells were resuspended and counted, and the cells were adjusted to an appropriate concentration for plating.
as §1, §2

MDA-MB-231 cells = assay: Inhibitory effect on MDA-MB-231 cell proliferation; assay type: cell-based; conditions: Homo sapiens; MDA-MB-231, 72 h incubation, Cell Counting-Lite 2.0
Method: (1) Cell plating: First, tumor cells MDA-MB-231 were cultured with corresponding culture medium, the cells were digested with trypsin and centrifuged, then the cells were resuspended and counted, and the cells were adjusted to an appropriate concentration for plating.
as §1, §2

HT29 cells = assay: Inhibitory effect on HT29 cell proliferation; assay type: cell-based; conditions: Homo sapiens, HT-29; HT29, 72 h incubation, Cell Counting-Lite 2.0
Method: (1) Cell plating: First, tumor cells HT29 were cultured with corresponding culture medium, the cells were digested with trypsin and centrifuged, then the cells were resuspended and counted, and the cells were adjusted to an appropriate concentration for plating.
as §1, §2

[1] = Permeability test in MDCK cell model; assay type: in vitro ADME; conditions: dog
Method: (§3) The MDCK cell model was used to evaluate the permeability of the compounds, the LC-MS/MS method was used to determine the concentration of the substance to be tested, and the apparent permeability coefficient (Papp) and efflux ratio were calculated [Efflux ratio=Papp(B→A)/Papp(A→B)].
(§4) Complete culture medium: 10% fetal bovine serum and 1% penicillin/streptomycin were added to MEM culture medium.
(§5) Digestive solution: 0.05% trypsin-EDTA.
(§6) HBSS buffer: HBSS containing Ca^2+, Mg^2+.
(§7) Permeating solution: HBSS containing 10 mM Hepes, 4% BSA, pH 7.4.
(§8) Compound stock solution: a certain amount of the compound to be tested was weighed and formulated with DMSO to prepare a 10 mM stock solution.
(§9) MDCK cells (26th generation) in the logarithmic growth phase were digested and dispersed evenly with 0.05% trypsin-EDTA, and then inoculated into the Transwell chamber at 3*10^5 cells/cm^2, with 200 μL on the A side and 1000 μL on the B side. After inoculation, the medium was changed once every day and the culturing was carried out for 3 to 4 days.
(§10) The cell culture medium was discarded by pipetting, then washing was carried out three times with the permeating solution. 200 μL of permeating solution was added to A side and 1000 μL of permeating solution was added to B side. A voltage resistance meter was used to measure the cell transmembrane resistance (TEER). After the TEER value of the cells was measured, the permeating solution on both sides was discarded by pipetting, and the solution was added. After 120 minutes, 150 μL of samples were taken from A side and B side, respectively, and frozen at −80° C. before testing. Then, 10 μg/ml Fluorescent Yellow was added to A side. After incubation for 30 minutes, 100 μL of solution at B side was pipetted and added into a 96-well white plate. The fluorescence value was measured at the wavelengths of Ex=485 nm and Em=530 nm using a microplate reader, and the permeance was calculated (which was less than 1%).
(§11) 80 μL of the compound to be tested was taken, added to 320 μL of acetonitrile solution containing internal standard (30 ng/mL Tolbutamide), vortexed, and centrifuged for 10 min (4000 rpm, 4° C.), and the supernatant was taken for LC-MS/MS analysis.
(§12) Excel 2013 was used to calculate Papp values and Papp ratio of B side→A side to A side→B side, and the recovery rates of each Control Compound and the compound to be tested were calculated.
(§13) Apparent permeability coefficient (Papp) of compound was calculated according to the following formula:
(§14) C0 was the initial concentration (μM) of the drug to be tested at the donor, (dCr/dt)×Vr was the rate (μM/s) at which the drug to be tested appeared at the receiver, Vr was the solution volume (mL) at the receiver, and A was the surface area (cm^2) of polycarbonate membrane.
(§15) Evaluation criteria: Low permeability: Papp≤0.5 (×10^−6 cm/s) • Medium permeability: 0.5<Papp<2.5 (×10^−6 cm/s) • High permeability: Papp≥2.5 (×10^−6 cm/s)
(§16) Efflux ratio (ER) was calculated according to Papp:
(§17) [formula] • wherein, Papp(B→A) was the apparent permeability coefficient of the drug to be tested from the BL (baso-lateral) end to the AP (apical) end, and Papp (A→B) was the apparent permeability coefficient of the drug to be tested from the AP end to the BL end.
(§18) • Probably being an efflux transporter substrate (Probably): ERa≥2 and ERa/ERi>2 • Likely being an efflux transporter substrate (Likely): ERa≥2 • Unlikely or impossibly being an efflux transporter substrate (Poor or non): ERa<2 • wherein, ERi and ERa were the efflux ratios of the compound to be tested in the presence and absence of P-gp inhibitor, respectively.

MDCK cells = assay: Permeability test in MDCK cell model; assay type: in vitro ADME
Method: as §3, §4, §5, §6, §7, §8, §9, §10, §11, §12, §13, §14, §15, §16, §17, §18

Jeko-1 cells = assay: Inhibitory effect on Jeko-1 cell proliferation; assay type: cell-based; conditions: Homo sapiens; Jeko-1, 72 h incubation, Cell Counting-Lite 2.0
Method: (1) Cell plating: First, tumor cells Jeko-1 were cultured with corresponding culture medium, the cells were resuspended and counted, and finally the cells were adjusted to an appropriate concentration for plating.
as §1, §2

NCI-H358 cells = assay: Inhibitory effect on NCI-H358 cell proliferation; assay type: cell-based; conditions: Homo sapiens; NCI-H358, 72 h incubation, Cell Counting-Lite 2.0
Method: (1) Cell plating: First, tumor cells NCI-H358 were cultured with corresponding culture medium, the cells were digested with trypsin and centrifuged, then the cells were resuspended and counted, and the cells were adjusted to an appropriate concentration for plating.
as §1, §2

HCC1806 cells = assay: Inhibitory effect on HCC1806 cell proliferation; assay type: cell-based; conditions: Homo sapiens; HCC1806, 72 h incubation, Cell Counting-Lite 2.0
Method: (1) Cell plating: First, tumor cells HCC1806 were cultured with corresponding culture medium, the cells were digested with trypsin and centrifuged, then the cells were resuspended and counted, and the cells were adjusted to an appropriate concentration for plating.
as §1, §2

[2] = Liver microsome stability test (human); assay type: in vitro ADME; conditions: 1 μM
Method: (§19) Liver microsomes were used as an in vitro model to evaluate the metabolic stability of compounds in human and monkey liver microsomes.
Mixed human liver microsomes: Xenotech, USA
(§20) The positive compound testosterone or the tested substance (liver microsome solution, 50 μL) was mixed with PBS (25 μL). After pre-incubation (37° C.) for 5 min, NADPH (25 μL) was added to make the final concentration of the positive compound or the tested substance 1 μM, the final concentration of human liver microsomal protein was 0.5 mg/ml, the final concentration of monkey liver microsomal protein was 1 mg/ml, the tested substance group and the positive compound group were incubated for 0 min, 15 min. After being reacted for corresponding time, 300 μL of ice-cold acetonitrile containing internal standard was added to terminate the reaction, vortexed, and stored at −80° C. for later analysis. All incubated samples were double samples.
(§21) The tested compound was vortexed for 1 min, and centrifuged for 10 min (4° C., 4000 rpm), and 300 μL of the supernatant was taken for LC-MS/MS analysis.
(§22) Excel software was used to calculate the remaining rate (%) of the drug in primary form in the incubation system: […]

HCC1954 cells = assay: Inhibitory effect on HCC1954 cell proliferation; assay type: cell-based; conditions: Homo sapiens; HCC1954, 72 h incubation, Cell Counting-Lite 2.0
Method: (1) Cell plating: First, tumor cells HCC1954 were cultured with corresponding culture medium, the cells were digested with trypsin and centrifuged, then the cells were resuspended and counted, and the cells were adjusted to an appropriate concentration for plating.
(§23) Co-incubation of the compounds of the present invention and tumor cells: After cell adherence, the culture medium in the cells was removed, and the diluted bioactive molecules (compounds of the present invention) were added into the wells of the above plates, and incubated for 72 h.
(§24) In vitro cell viability detection: After the incubation, 50 μL of Cell Counting-Lite™ 2.0 reagent (Vazyme) was added to each well, shaken and mixed well in the dark, and reacted for 10 minutes before testing. Microplate reader (manufacturer: BMG, Model: PHERA Star-FS) was used for reading. The Cell Counting-Lite™ without cells was used to obtain the background RLU, and the Cell Counting-Lite™ with cells was used obtain the solvent RLU. Cell inhibition rate=1−(sample RLU−background RLU)/(solvent RLU−background RLU)×100%. The half-inhibition concentration (IC50) of compound was calculated by fitting the curve according to the four-parameter model. RLU: relative light unit.

[3] = Liver microsome stability test (monkey); assay type: in vitro ADME, cynomolgus; conditions: 1 μM
Method: as §19
Mixed male cynomolgus liver microsomes: RILD, China
as §20, §21, §22

NCI-H1975 cells = assay: Inhibitory effect on NCI-H1975 cell proliferation; assay type: cell-based; conditions: Homo sapiens; NCI-H1975, 72 h incubation, Cell Counting-Lite 2.0
Method: (1) Cell plating: First, tumor cells NCI-H1975 were cultured with corresponding culture medium, the cells were digested with trypsin and centrifuged, then the cells were resuspended and counted, and the cells were adjusted to an appropriate concentration for plating.
as §23, §24

HCC827 cells = assay: Inhibitory effect on HCC827 cell proliferation; assay type: cell-based; conditions: Homo sapiens; HCC827, 72 h incubation, Cell Counting-Lite 2.0
Method: (1) Cell plating: First, tumor cells HCC827 were cultured with corresponding culture medium, the cells were digested with trypsin and centrifuged, then the cells were resuspended and counted, and the cells were adjusted to an appropriate concentration for plating.
as §23, §24

[4] = pH 7.4, 2.00 μM, Papp(B→A)/Papp(A→B), absence of P-gp inhibitor, read-out: Efflux ratio (ERa)

CC[C@@]1(O)C(=O)OCc2c1cc1n(c2=O)Cc2c-1nc1cc(F)c(Cl)cc1c2CNC(=O)CO [Compound 2-1, (S)—N-((9-chloro-4-ethyl-8-fluoro-4-hydroxy-3,14-dioxy-3,4,12,14-tetrahydro-1H-pyrano[3′,4′:6,7]indolizino[1,2-b]quinolin-11-yl)methyl)-2-hydroxyacetamide]
IC50 (MDA-MB-453 cells): 156 nM
IC50 (NCI-N87 cells): 81.6 nM
IC50 (MDA-MB-231 cells): 38.5 nM
IC50 (HT29 cells): 14.6 nM
Papp A→B at 120 min, 2 μM ([1]; pH 7.4): 5.2 nm/s
Papp B→A at 120 min, 2 μM ([1]; pH 7.4): 4.2 nm/s
efflux ratio at 120 min, 2 μM [1, 4]: 0.81
Permeability class according to the Papp(A→B) results (MDCK cells): medium-permeability
Efflux transporter substrate evaluation from efflux ratio (MDCK cells; 2.00 μM): not efflux transporter substrates or were weak efflux transporter substrates
IC50 (Jeko-1 cells): 1.62 nM
IC50 (NCI-H358 cells): 121 nM
IC50 (HCC1806 cells): 8.08 nM

CC[C@@]1(O)C(=O)OCc2c1cc1n(c2=O)Cc2c-1nc1cc(F)c(Cl)c3c1c2[C@@H](NC(=O)C[C@H](C)O)CC3 [Compound 2-25, (S)—N-((1S,9S)-4-chloro-9-ethyl-5-fluoro-9-hydroxy-10,13-dioxo-2,3,9,10,13,15-hexahydro-1H,12H-benzo[d]pyrano[3′,4′:6,7]indolizino[1,2-b]quinolin-1-yl)-3-hydroxybutyamide]
Remaining rate (%) Human ([2]; human, microsomes, 0.25 h): 80.0%
IC50 (HCC1954 cells): 171 nM
Remaining rate (%) Monkey ([3]; male, monkey, microsomes, 0.25 h): 79.5%
IC50 (NCI-H1975 cells): 29.4 nM
Papp A→B at 120 min, 2 μM ([1]; pH 7.4): 7.8 nm/s
Papp B→A at 120 min, 2 μM ([1]; pH 7.4): 35.6 nm/s
efflux ratio at 120 min, 2 μM ([1]; pH 7.4): 4.57
Permeability class according to the Papp(A→B) results (MDCK cells): medium-permeability
IC50 (HCC827 cells): 110 nM

CC[C@@]1(O)C(=O)OCc2c1cc1n(c2=O)Cc2c-1nc1cc(F)c(C)c3c1c2[C@@H](NC(=O)C[C@H](C)O)CC3 [Control Compound 4, reference compound]
Remaining rate (%) Human ([2]; human liver microsomes 0.5 mg/ml, 15 min, NADPH): 64.6%
Remaining rate (%) Monkey ([3]; monkey liver microsomes 1 mg/ml, 15 min, NADPH): 65.1%
efflux ratio at 120 min, 2 μM [1, 4]: 21.7
Papp A→B at 120 min, 2 μM ([1]; pH 7.4, concentration 2.00 μM, 120 minutes, A to B, read-out: Papp A to B): 2.4 nm/s
Papp B→A at 120 min, 2 μM ([1]; pH 7.4, concentration 2.00 μM, 120 minutes, B to A, read-out: Papp B to A): 52.5 nm/s
Efflux transporter substrate evaluation from efflux ratio (MDCK cells; 2.00 μM): could be efflux transporter substrates
Permeability class according to the Papp(A→B) results (MDCK cells; 2.00 μM): low-permeability
